# Measurements from US20220144841A1, “TRISUBSTITUTED PYRAZOLO [1,5-A] PYRIMIDINE COMPOUNDS AS CDK7 INHIBITORS” (THE TRANSLATIONAL GENOMICS RESEARCH INSTITUTE, priority 2019, published 2022).
# Counter-ions that a name gives are not always drawn.
# Target: T1, CDK7/CycH/MAT1 (Homo sapiens, UniProt P50613)
# T1 construct: purchased ProQinase 0366-0360-4
# Experiment: Kinase ADP-Glo Assay
# Assay type: biochemical
# Conditions: ADP-Glo assay (compounds without *), ATP 1 μM, 60 minutes at room temperature
# Procedure: Assay Buffer: 50 mM HEPES, 3 mM MgCl2, 3 mM MnCl2, 1 mM DTT, 3 μM Na3VO4, pH 7.5
# Substrate RB: CTF Peptide (ProQinase #: 0040-0000-6)
# ADP-Glo™ Assay (Promega #: V9101): ATP: 10 mM, ADP-Glo™ Reagent, Kinase Detection Reagent
# 384-well white assay plates
# A ten point serial dilution of compound was prepared at 5× concentration in assay buffer with the final assay concentrations starting at 30 μM, 10 μM, 3 μM, 1 μM . . . 0 μM. Enzyme, substrate, and ATP were used at 40 ng, 200 ng (or 400 ng)^+ and 1 μM, respectively. The assay plate was set up by mixing the components in a total reaction volume of 10 μL per well. The plate was centrifuged gently for 10 seconds and incubated at room temperature (RT) for 60 minutes in the dark. The ADP-Glo Reagent and kinase detection reagent were added and incubated as recommended. The reaction was quantified by measuring luminescence on the Perkin Elmer Envision plate reader. Data was analyzed using Graphpad Prism 7 software. *With CDK2 enzyme, 400 ng of substrate was used.
# T1 sequence (P50613 whole entry): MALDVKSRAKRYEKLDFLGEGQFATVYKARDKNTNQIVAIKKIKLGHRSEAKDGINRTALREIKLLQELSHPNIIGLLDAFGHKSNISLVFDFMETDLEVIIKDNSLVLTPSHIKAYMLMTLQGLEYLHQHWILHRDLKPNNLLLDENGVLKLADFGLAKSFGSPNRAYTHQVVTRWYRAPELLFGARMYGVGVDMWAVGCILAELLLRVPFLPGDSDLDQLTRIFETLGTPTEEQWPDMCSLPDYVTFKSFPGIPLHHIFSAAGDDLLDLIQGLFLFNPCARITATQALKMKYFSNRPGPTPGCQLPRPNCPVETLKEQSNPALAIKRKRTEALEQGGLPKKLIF
# T1 sequence (P51946 whole entry partner): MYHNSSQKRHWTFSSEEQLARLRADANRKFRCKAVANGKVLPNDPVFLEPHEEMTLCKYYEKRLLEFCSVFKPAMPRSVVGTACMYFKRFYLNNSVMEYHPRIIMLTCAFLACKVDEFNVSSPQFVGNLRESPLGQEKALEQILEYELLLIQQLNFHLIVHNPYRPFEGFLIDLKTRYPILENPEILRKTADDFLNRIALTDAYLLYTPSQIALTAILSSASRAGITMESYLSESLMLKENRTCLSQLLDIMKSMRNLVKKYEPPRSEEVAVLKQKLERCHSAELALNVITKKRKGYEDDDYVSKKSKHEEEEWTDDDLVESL
# T1 sequence (P51948 whole entry partner): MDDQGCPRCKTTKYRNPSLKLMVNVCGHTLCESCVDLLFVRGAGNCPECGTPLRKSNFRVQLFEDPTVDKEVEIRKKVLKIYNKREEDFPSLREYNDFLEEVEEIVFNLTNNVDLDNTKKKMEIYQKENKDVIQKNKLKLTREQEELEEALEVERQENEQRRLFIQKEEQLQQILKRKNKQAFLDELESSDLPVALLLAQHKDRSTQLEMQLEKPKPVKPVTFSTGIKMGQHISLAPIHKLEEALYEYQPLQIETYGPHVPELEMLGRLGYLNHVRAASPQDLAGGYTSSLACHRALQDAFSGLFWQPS
row,Compound,IC50 [nM]
1,"O[C@@H]1CNCC[C@H]1COc1cc(Nc2cccc(F)c2)n2ncc(C3CC3)c2n1 (relative stereo) [Compound I-53, trans-4-((3-cyclopropyl-7-((3-fluorophenyl)amino)pyrazolo [1,5-a]pyrimidin-5-yl)oxymethyl)piperidin-3-ol]",< 100
2,"Cc1cc(F)cc(Nc2cc(O[C@@H]3CNC[C@@H](O)C3)nc3c(C4CCC4)cnn23)c1 (relative stereo) [Compound I-57, trans-5-((3-cyclobutyl-7-((3-fluoro-5-methylphenyl)amino)pyrazolo [1,5-a]pyrimidin-5-yl)oxy)piperidin-3-ol]",< 100
3,"Fc1cccc(Nc2cc(O[C@H]3CCCNC3)nc3c(C4CC4)cnn23)c1 [Compound I-4, (S)-3-cyclopropyl-N-(3-fluorophenyl)-5-((piperidin-3-yl)oxy)pyrazolo[1,5-a]pyrimidin-7-amine]",< 100
4,"N[C@H]1CC[C@H](Nc2cc(Nc3cccc(F)c3)n3ncc(C4CC4)c3n2)CC1 [Compound I-6, Trans-N^5-(4-aminocyclohexyl)-3-cyclopropyl-N^7-(3-fluorophenyl)pyrazolo[1,5-a]pyrimidine-5,7-diamine]",100 to 1000
5,"N[C@H]1CC[C@@H](Nc2cc(Nc3cccc(F)c3)n3ncc(C4CC4)c3n2)CC1 [Compound I-7, Cis-N^5-(4-aminocyclohexyl)-3-cyclopropyl-N^7-(3-fluorophenyl)pyrazolo[1,5-a]pyrimidine-5,7-diamine]",100 to 1000
6,FC(F)(F)c1cccc(Nc2cc(N[C@H]3CCCNC3)nc3c(C4CC4)cnn23)c1 [Compound I-8],< 100
7,"N#Cc1cccc(Nc2cc(N[C@H]3CCCNC3)nc3c(C4CC4)cnn23)c1 [Compound I-9, (S)-3-((3-cyclopropyl-5-((piperidin-3-yl)amino)pyrazolo[1,5-a]pyrimidin-7-yl)amino)benzonitrile]",< 100
8,FC(F)(F)Cc1cccc(Nc2cc(N[C@H]3CCCNC3)nc3c(C4CC4)cnn23)c1 [Compound I-10],100 to 1000
9,"O[C@@H]1CNCC[C@H]1CNc1cc(Nc2cccc(F)c2)n2ncc(C3CC3)c2n1 [Compound I-11, (3S,4S)-4-(((3-cyclopropyl-7-((3-fluorophenyl)amino)pyrazolo [1,5-a]pyrimidin-5-yl)amino)methyl)piperidin-3-ol]",< 100
10,"O[C@@H]1CNCC[C@@H]1CNc1cc(Nc2cccc(F)c2)n2ncc(C3CC3)c2n1 [Compound I-12, (3S,4R)-4-((3-cyclopropyl-7-((3-fluorophenyl)amino)pyrazolo [1,5-a]pyrimidin-5-yl)aminomethyl)piperidin-3-ol]",100 to 1000
11,Fc1cccc(Nc2cc(NC[C@H]3CCCNC3)nc3c(C4CC4)cnn23)c1 [Compound I-13],> 1000
12,Fc1cccc(Nc2cc(OC[C@H]3CCCNC3)nc3c(C4CC4)cnn23)c1 [Compound I-14],100 to 1000
13,"N#Cc1cccc(Nc2cc(NC[C@@H]3CCNC[C@H]3O)nc3c(C4CC4)cnn23)c1 [Compound I-15, (3S,4S)-3-((3-cyclopropyl-5-(((3-hydroxy)piperidin-4-yl)methylamino)pyrazolo[1,5-a]pyrimidin-7-yl)amino)benzonitrile]",100 to 1000
14,"N#Cc1cc(F)cc(Nc2cc(NC[C@@H]3CCNC[C@H]3O)nc3c(C4CC4)cnn23)c1 [Compound I-16, (3S,4S)-3-((3-cyclopropyl-5-(((3-hydroxy)piperidin-4-yl)methylamino)pyrazolo[1,5-a]pyrimidin-7-yl)amino)-5-fluorobenzonitrile trifluoroacetate salt]",> 1000
15,O[C@@H]1CNCC[C@H]1CNc1cc(Nc2cccc(F)c2)n2ncc(C3CC3)c2n1 [Compound I-17],100 to 1000
16,Clc1cccc(Nc2cc(N[C@H]3CCCNC3)nc3c(C4CC4)cnn23)c1 [Compound I-18],< 100
17,"O[C@H]1CCNC[C@@H]1Nc1cc(Nc2cccc(F)c2)n2ncc(C3CC3)c2n1 [Compound I-21, (3S,4S)-3-((3-cyclopropyl-7-((3-fluorophenyl)amino)pyrazolo [1,5-a]pyrimidin-5-yl)amino)piperidin-4-ol hydrochloride]",> 1000
18,"O[C@@H]1CNC[C@@H](Nc2cc(Nc3cccc(F)c3)n3ncc(C4CC4)c3n2)C1 [Compound I-22, hydrochloride]",> 1000

row,Compound,IC50 [nM]
1,"N#Cc1cnn2c(NCc3cccc(F)c3)cc(N[C@H]3CCCNC3)nc12 [Compound I-29, (S)-7-((3-fluorobenzyl)amino)-5-((piperidin-3-yl)amino)pyrazolo[1,5-a]pyrimidine-3-carbonitrile]",100 to 1000
2,"Cc1cccc(CNc2cc(N[C@H]3CCCNC3)nc3c(C#N)cnn23)c1 [Compound I-30, (S)-7-((3-methylbenzyl)amino)-5-((piperidin-3-yl)amino)pyrazolo[1,5-a]pyrimidine-3-carbonitrile]",100 to 1000
3,"O[C@H]1CNCC[C@@H]1CNc1cc(Nc2cccc(F)c2)n2ncc(C3CC3)c2n1 [Compound I-45, (3R,4R)-4-((3-cyclopropyl-7-((3-fluorophenyl)amino)pyrazolo [1,5-a]pyrimidin-5-yl)aminomethyl)piperidin-3-ol]",< 100
4,"O[C@H]1CNCC[C@@H]1CNc1cc(Nc2cc(F)cc(F)c2)n2ncc(C3CC3)c2n1 [Compound I-46, (3R,4R)-4-((3-cyclopropyl-7-((3,5-difluorophenyl)amino)pyrazolo[1,5-a]pyrimidin-5-yl)aminomethyl)piperidin-3-ol]",100 to 1000
5,"O[C@@H]1CNCC[C@H]1CNc1cc(Nc2cc(F)cc(F)c2)n2ncc(C3CC3)c2n1 [Compound I-47, (3S,4S)-4-((3-cyclopropyl-7-((3,5-difluorophenyl)amino)pyrazolo[1,5-a]pyrimidin-5-yl)aminomethyl)piperidin-3-ol]",100 to 1000
6,"N#Cc1cccc(Nc2cc(NC[C@H]3CCNC[C@@H]3O)nc3c(C4CC4)cnn23)c1 [Compound I-48, (3R,4R)-3-(((3-cyclopropyl-5-(3-hydroxypiperidin-4-yl)methylamino)pyrazolo[1,5-a]pyrimidin-7-yl)amino)benzonitrile]",< 100
7,"Cc1cc(F)cc(Nc2cc(NC[C@H]3CCNC[C@@H]3O)nc3c(C4CC4)cnn23)c1 [Compound I-49, (3R,4R)-4-((3-cyclopropyl-7-((3-fluoro-5-methylphenyl)amino)pyrazolo [1,5-a]pyrimidin-5-yl)aminomethyl)piperidin-3-ol]",< 100
8,O[C@H]1CNCC[C@@H]1CNc1cc(Nc2cccc(F)c2)n2ncc(C3CCC3)c2n1 [Compound I-50],< 100
9,"CS(=O)(=O)c1cccc(Nc2cc(NC[C@H]3CCNC[C@@H]3O)nc3c(C4CC4)cnn23)c1 [Compound I-51, (3R,4R)-((3-cyclopropyl-7-((3-methylsulfonylphenyl)amino)pyrazolo[1,5-a]pyrimidin-5-yl)aminomethyl)piperidin-3-ol]",< 100
10,"Cc1cc(F)cc(Nc2cc(NC[C@H]3CCNC[C@@H]3O)nc3c(C4CCC4)cnn23)c1 [Compound I-52, (3R,4R)-((3-cyclobutyl-7-((3-fluoro-5-methylphenyl)amino)pyrazolo [1,5-a]pyrimidin-5-yl)aminomethyl)piperidin-3-ol]",< 100
11,"Cc1cc(C#N)cc(Nc2cc(NC[C@H]3CCNC[C@@H]3O)nc3c(C4CC4)cnn23)c1 [Compound I-54, (3R,4R)-3-((3-cyclopropyl-5-((3-hydroxypiperidin-4-yl)methylamino)pyrazolo[1,5-a]pyrimidin-7-yl)amino)-5-methylbenzonitrile]",< 100
12,"N#Cc1cc(F)cc(Nc2cc(NC[C@H]3CCNC[C@@H]3O)nc3c(C4CCC4)cnn23)c1 [Compound I-55, (3R,4R)-3-((3-cyclobutyl-5-((3-hydroxypiperidin-4-yl)methylamino)pyrazolo[1,5-a]pyrimidin-7-yl)amino)-5-fluorobenzonitrile]",< 100
13,"Cc1cc(F)cc(Nc2cc(N[C@@H]3CNC[C@@H](O)C3)nc3c(C4CCC4)cnn23)c1 [Compound I-56, (3S,5S)-5-((3-cyclobutyl-7-((3-fluoro-5-methylphenyl)amino)pyrazolo [1,5-a]pyrimidin-5-yl)amino)piperidin-3-ol]",100 to 1000
14,"Cc1cc(F)cc(Nc2cc(O[C@H]3CCCNC3)nc3c(C4CCC4)cnn23)c1 [Compound I-58, (S)-3-cyclobutyl-N-(3-fluoro-5-methylphenyl)-5-((piperidin-3-yl)oxy)pyrazolo[1,5-a]pyrimidin-7-amine]",< 100
15,"Cc1cc(F)cc(Nc2cc(NC[C@H]3CCCNC3)nc3c(C4CCC4)cnn23)c1 [Compound I-59, (S)-3-cyclobutyl-N^7-(3-fluoro-5-methylphenyl)-N^5-((piperidin-3-yl)methyl)pyrazolo[1,5-a]pyrimidine-5,7-diamine]",> 1000
16,"N#Cc1cc(F)cc(Nc2cc(OC[C@H]3CCCNC3)nc3c(C4CCC4)cnn23)c1 [Compound I-60, (S)-3-((3-cyclobutyl-5-((piperidin-3-yl)methoxy)pyrazolo[1,5-a]pyrimidin-7-yl)amino)-5-fluorobenzonitrile]",> 1000
17,"Cc1cc(Nc2cc(O[C@H]3CCCNC3)nc3c(C4CC4)cnn23)cc(C(F)(F)F)c1 [Compound I-61, (S)-3-cyclopropyl-N-(5-methyl-3-trifluoromethylphenyl)-5-((piperidin-3-yl)oxy)pyrazolo[1,5-a]pyrimidin-7-amine]",100 to 1000
